# Data as given in US20080027088A1, “Imidazole-Based Hmg-Coa Reductase Inhibitors” (Warner-Lambert Company, LLC, priority 2004, published 2008).
# Key:
# LCB1 and LCB2 mRNA = test: SPT gene expression (LCB1, LCB2 mRNA) in liver by RT-PCR; format: in vivo; conditions: 0.3 mg/kg/day diet admix, 12 weeks, Western diet-fed ApoE KO mice
# Method: SPT expression and activity—Total RNA was isolated from liver and aorta using Trizol (Invitrogen, Calif.). LCB1 and LCB2 mRNA levels were measured by real-time (RT) polymerase chain reaction (PCR) on ABI Prism 7900HT Sequence Detection System (Applied Biosystems, Foster City, Calif.). The following primers and probe sets were utilized: LCB1, forward primer, 5′-CCGCTCCTTCGTGGTTGA-3′: reverse primer, 5′-[…]-3′: probe, 5′FAM-[…]-3′; LCB2, forward primer, 5′-[…]-3′, reverse primer, 5′-CCTCAGGATCCAGGCCM-3′, probe, 5′FAM-[…]-3′. The optimum number of cycles was set for each gene product with uniform amplification. Each mRNA level was expressed as a ratio to 18s ribosomal RND or as a ratio to GAPDH RNA.
# FIGS. 1-A, 1-B, 1-C, 1-D and 1-E. SPT gene expression and enzyme activity. Mice were treated with 0.3 mg/kg/day myriocin for 12 weeks by mixing with Western diet chow. Liver was isolated and total mRNA and cell-free homogenate were prepared. SPT mRNA expression was quantified by quantitative RT-PCR. Expression was described as a ratio of LCB1 (A) or LCB2 (B) mRNA to 18s RNA or to rodent GAPDH RNA (n=5, P>0.05). SPT activity of cell-free homogenate (C) was measured with ^14C-labeled Serine and palmitoyl-coenzyme A as substrates and analyzed by TLC. Relative amounts of 3-ketosphinganine were determined by densitometry scanning. The values reported are mean±SEM (n=3, *P<0.05).
# [1] = tested on: ApoE KO mice fed a Western diet; test: Sphinganine in liver and aorta by LC/MS, 12 weeks; format: in vivo; conditions: 0.3 mg/kg/day
# From the text: Analysis of Sphingolipids and Phospholipids by LC/MS and HPLC-Total lipids were extracted by the modified method of Bligh-Dyer extraction (E. G. Bligh and W. J. Dyer, Can. J. Med. Sci. 1959;37:911-917; and D. K. Perry, A. Bielawska and Y. A. Hannun, Methods Enzymol. 2000;312:22-31). A Micromass (Waters Corp., Milford, Mass.) Quattro Ultima tandem quadrupole mass spectrometer with a standard Z-sprayTM ion source, set to electrospray positive ionization mode, with MassLynxTM version 3.5 operating software, was used for all quantitative determinations. Source conditions were typically as follows: capillary 3.5 kV, source temperature 110 degrees C., and desolvation temperature 325 degrees C. Multipliers were set to 650 V, and the dwell time for each analyte was 100 milliseconds. […] The following ion transitions were used for quantification: sphingomyelin (704→184 m/z), sphinganine (302→284 m/z), ceramide (566→264 m/z) and psychosine (462→282 m/z) as an internal standard. […] For the quantitative method, the analytical column was a Phenomenex (Torrance, Calif.) Polar-RP (2.0×150 mm, 4 μm) with a […] […] Lipid extracts were analyzed by HPLC and evaporative light scattering detector to determine plasma sphingomyelin and phosphatidylcholine (PC) levels (R. Homan and M.K. Anderson, J. Chromatogr. B. Biomed. Sci. Appl. 1998;708:21-6). […] Sphinganine levels in liver (A) and aorta (B) were determined by LC/MS. […]
structure (smiles),measurement,setting,value
CCCCCCC(=O)CCCCCC/C=C/C[C@@H](O)[C@H](O)[C@@](N)(CO)C(=O)O [myriocin],effect on expression of LCB1 and LCB2 mRNA in the liver,LCB1 and LCB2 mRNA,no effect
same,sphinganine levels in the liver lowered,[1]; vs Western diet-fed ApoE KO mice,42%
same,sphinganine levels in aorta lower,[1]; vs Western diet-fed group,45%
